Source: PubChem BioAssay AID1845213 (Molecular Pharmacology Branch, DTP, NCI, 2023)
Active and inactive are the calls of the source. Rule for the calls: active = viability on the fitted dose curve at most 10% of control; inactive = the rest.

Tested on: NCI-H841 complex tumor spheroid viability
Assay: Anticancer human tumor NCI-H841 cell line growth inhibition;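 for IC50: spheroids exposed to compounds for 7 days before readout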;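 for viability, T/C: spheroids exposed to compounds for 7 days before readout; 100% = DMSO vehicle control wells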
Details: for IC50: curve of first compound; for viability, T/C: stronger effect = lower value
Summary of the method: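 Complex tumor spheroids combined malignant cells with endothelial cells and mesenchymal stem cells. DNA-damaging drugs and DNA repair inhibitors were tested alone and in combination, at half-log dilutions down from clinical Cmax (top 10 microM if Cmax unknown), 0.25% DMSO final.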

[1] = second compound 1 µM, first compound 0.0316 µM
[2] = second compound 1 µM, first compound 0.1 µM
[3] = second compound 1 µM, first compound 0.316 µM
[4] = second compound 1 µM, first compound 1 µM
[5] = second compound 1 µM, first compound 3.16 µM
[6] = second compound 1 µM, first compound 10 µM
[7] = second compound 3.16 µM, first compound 0.0316 µM
[8] = second compound 3.16 µM, first compound 0.1 µM
[9] = second compound 3.16 µM, first compound 0.316 µM
[10] = second compound 3.16 µM, first compound 1 µM
[11] = second compound 3.16 µM, first compound 3.16 µM
[12] = second compound 3.16 µM, first compound 10 µM
[13] = second compound 10 µM, first compound 0.0316 µM
[14] = second compound 10 µM, first compound 0.1 µM
[15] = second compound 10 µM, first compound 0.316 µM
[16] = second compound 10 µM, first compound 1 µM
[17] = second compound 10 µM, first compound 3.16 µM
[18] = second compound 10 µM, first compound 10 µM
[19] = second compound 31.6 µM, first compound 0.0316 µM
[20] = second compound 31.6 µM, first compound 0.1 µM
[21] = second compound 31.6 µM, first compound 0.316 µM
[22] = second compound 31.6 µM, first compound 1 µM
[23] = second compound 31.6 µM, first compound 3.16 µM
[24] = second compound 31.6 µM, first compound 10 µM
[25] = second compound 100 µM, first compound 0.0316 µM
[26] = second compound 100 µM, first compound 0.1 µM
[27] = second compound 100 µM, first compound 0.316 µM
[28] = second compound 100 µM, first compound 1 µM
[29] = second compound 100 µM, first compound 3.16 µM
[30] = second compound 100 µM, first compound 10 µM

SMILES: CC(C)n1c(=O)n(C)c2cnc3cc(F)c(-c4ccc(OCCCN5CCCCC5)nc4)cc3c21 + Cn1nnc2c(C(N)=O)ncn2c1=O
- IC50 (second compound 1 µM): > 10000 nM
- IC50 (second compound 3.16 µM): > 10000 nM
- IC50 (second compound 10 µM): > 10000 nM
- IC50 (second compound 31.6 µM): 8520 nM
- IC50 (second compound 100 µM): 3910 nM
- viability, T/C [1]: 91.3%
- viability, T/C [2]: 93.5%
- viability, T/C [3]: 95.3%
- viability, T/C [4]: 92.3%
- viability, T/C [5]: 85.8%
- viability, T/C [6]: 57.5%
- viability, T/C [7]: 94.5%
- viability, T/C [8]: 96.1%
- viability, T/C [9]: 99.9%
- viability, T/C [10]: 90.5%
- viability, T/C [11]: 89.3%
- viability, T/C [12]: 77.4%
- viability, T/C [13]: 93.1%
- viability, T/C [14]: 94.1%
- viability, T/C [15]: 94.8%
- outcome [16]: inactive
- viability, T/C [17]: 88%
- viability, T/C [18]: 62.4%
- viability, T/C [19]: 91%
- viability, T/C [20]: 92.2%
- viability, T/C [21]: 87.9%
- viability, T/C [22]: 88.4%
- viability, T/C [23]: 76.2%
- viability, T/C [24]: 45.8%
- viability, T/C [25]: 84.4%
- viability, T/C [26]: 82.8%
- viability, T/C [27]: 77.9%
- viability, T/C [28]: 75.9%
- viability, T/C [29]: 52.9%
- viability, T/C [30]: 35.5%

SMILES: CC1COCCN1c1cc(-c2ccnn2C)c2ccnc(-c3ccn[nH]3)c2n1 (stereo not given) + Cn1nnc2c(C(N)=O)ncn2c1=O
- IC50 (second compound 1 µM): 49.1 nM
- IC50 (second compound 3.16 µM): 37.6 nM
- IC50 (second compound 10 µM): 36.3 nM
- IC50 (second compound 31.6 µM): 36.9 nM
- IC50 (second compound 100 µM): < 31.6 nM
- viability, T/C [1]: 66%
- viability, T/C [2]: 24.1%
- viability, T/C [3]: 8.33%
- viability, T/C [4]: 2.75%
- viability, T/C [5]: 1.79%
- viability, T/C [6]: 1.91%
- outcome [7]: inactive
- viability, T/C [8]: 20.8%
- viability, T/C [9]: 5.48%
- viability, T/C [10]: 2.34%
- viability, T/C [11]: 1.67%
- viability, T/C [12]: 1.99%
- viability, T/C [13]: 55.4%
- viability, T/C [14]: 12.6%
- viability, T/C [15]: 6.12%
- viability, T/C [16]: 2.58%
- viability, T/C [17]: 1.4%
- viability, T/C [18]: 1.82%
- viability, T/C [19]: 56%
- viability, T/C [20]: 12.1%
- viability, T/C [21]: 4.22%
- viability, T/C [22]: 1.97%
- viability, T/C [23]: 1.42%
- viability, T/C [24]: 1.66%
- viability, T/C [25]: 23.6%
- viability, T/C [26]: 6.68%
- viability, T/C [27]: 1.75%
- viability, T/C [28]: 2.09%
- viability, T/C [29]: 2.84%
- viability, T/C [30]: 1.47%

SMILES: COc1cc(C)[nH]c(=O)c1CN1CCc2c(Cl)cc(C(OC)C3COC3)c(Cl)c2C1=O (stereo not given) + Cn1nnc2c(C(N)=O)ncn2c1=O
- IC50 (second compound 1 µM): 398 nM
- IC50 (second compound 3.16 µM): 547 nM
- IC50 (second compound 10 µM): 367 nM
- IC50 (second compound 31.6 µM): 428 nM
- IC50 (second compound 100 µM): 394 nM
- viability, T/C [1]: 79.7%
- viability, T/C [2]: 67.1%
- viability, T/C [3]: 48.4%
- viability, T/C [4]: 45.4%
- viability, T/C [5]: 33.9%
- viability, T/C [6]: 31.3%
- viability, T/C [7]: 85%
- viability, T/C [8]: 63.5%
- viability, T/C [9]: 54.5%
- viability, T/C [10]: 47.8%
- viability, T/C [11]: 38.5%
- viability, T/C [12]: 32.8%
- viability, T/C [13]: 86%
- viability, T/C [14]: 67%
- viability, T/C [15]: 50.6%
- viability, T/C [16]: 41.1%
- viability, T/C [17]: 35.9%
- viability, T/C [18]: 30.9%
- viability, T/C [19]: 83.9%
- viability, T/C [20]: 70.3%
- viability, T/C [21]: 49.8%
- viability, T/C [22]: 41.8%
- viability, T/C [23]: 36.9%
- viability, T/C [24]: 27%
- viability, T/C [25]: 87.3%
- viability, T/C [26]: 77.6%
- viability, T/C [27]: 51.2%
- viability, T/C [28]: 39.9%
- viability, T/C [29]: 36.5%
- viability, T/C [30]: 30.8%

SMILES: COc1ccc([C@@H](O)c2cc(-c3ncnc4cc(N5CCOCC5)ccc34)c(F)cc2Cl)nn1 + Cn1nnc2c(C(N)=O)ncn2c1=O
- IC50 (second compound 1 µM): 2040 nM
- IC50 (second compound 3.16 µM): 2010 nM
- IC50 (second compound 10 µM): 2050 nM
- IC50 (second compound 31.6 µM): 2270 nM
- IC50 (second compound 100 µM): 1820 nM
- viability, T/C [1]: 100%
- viability, T/C [2]: 99.1%
- viability, T/C [3]: 92.7%
- outcome [4]: inactive
- viability, T/C [5]: 36%
- viability, T/C [6]: 7.89%
- viability, T/C [7]: 102%
- viability, T/C [8]: 104%
- viability, T/C [9]: 97.1%
- viability, T/C [10]: 70.7%
- viability, T/C [11]: 36.4%
- viability, T/C [12]: 8.99%
- viability, T/C [13]: 103%
- viability, T/C [14]: 105%
- viability, T/C [15]: 91%
- viability, T/C [16]: 80.1%
- viability, T/C [17]: 32.1%
- viability, T/C [18]: 9.08%
- viability, T/C [19]: 97.5%
- viability, T/C [20]: 99.7%
- viability, T/C [21]: 95.3%
- viability, T/C [22]: 79.3%
- viability, T/C [23]: 38.1%
- viability, T/C [24]: 8.74%
- viability, T/C [25]: 97.5%
- viability, T/C [26]: 100%
- viability, T/C [27]: 87%
- viability, T/C [28]: 71%
- viability, T/C [29]: 31.5%
- viability, T/C [30]: 7.13%

SMILES: [2H]c1nc(C)nc([2H])c1-c1cc(NC[C@@H](C)c2cccc3c(C(=O)NC)ccnc23)ncn1 + Cn1nnc2c(C(N)=O)ncn2c1=O
- IC50 (second compound 1 µM): > 10000 nM
- IC50 (second compound 3.16 µM): > 10000 nM
- IC50 (second compound 10 µM): > 10000 nM
- IC50 (second compound 31.6 µM): > 10000 nM
- IC50 (second compound 100 µM): > 10000 nM
- viability, T/C [1]: 98%
- viability, T/C [2]: 97.6%
- viability, T/C [3]: 94.8%
- viability, T/C [4]: 95%
- viability, T/C [5]: 93.2%
- viability, T/C [6]: 91.4%
- viability, T/C [7]: 98.8%
- viability, T/C [8]: 99.8%
- viability, T/C [9]: 101%
- viability, T/C [10]: 101%
- viability, T/C [11]: 95%
- viability, T/C [12]: 99.3%
- viability, T/C [13]: 99.6%
- viability, T/C [14]: 99.8%
- viability, T/C [15]: 97.7%
- viability, T/C [16]: 101%
- viability, T/C [17]: 98.9%
- viability, T/C [18]: 96.5%
- viability, T/C [19]: 97%
- viability, T/C [20]: 97.7%
- viability, T/C [21]: 100%
- viability, T/C [22]: 98%
- viability, T/C [23]: 97.4%
- outcome [24]: inactive
- viability, T/C [25]: 93.4%
- viability, T/C [26]: 95.7%
- viability, T/C [27]: 92.5%
- viability, T/C [28]: 95.9%
- viability, T/C [29]: 95.8%
- viability, T/C [30]: 91.2%
